For the assay, the system named is proteasome. The assay is described as follows: PARIS steady state levels in SH-SY5Y cells treated with proteasome inhibitor (immunoblot). The class given is cell-based, human. As to conditions: for PARIS steady state level: 10 μM MG-132 vs DMSO control, normalized to β-actin. As to the method:
Human neuroblastoma SH-SY5Y cells (ATCC, Manassas, Va.) were grown in DMEM containing 10% FBS and antibiotics in a humidified 5% CO2/95% air atmosphere at 37° C. For transient transfection, cells were transfected with indicated amounts of target vector using Lipofectamine Plus (Invitrogen), according to manufacturer's instructions. For co-immunoprecipitation from cell cultures, SH-SY5Y cells were transfected with 2 μg of each plasmid, unless otherwise indicated. For the ubiquitination assay, SH-SY5Y cells were transiently transfected with 2 μg of pRK5-Myc-tagged parkin, Myc-tagged parkin (C431F, G430D, R275W, and Q311 X) pCMV-FLAG-PARIS, and 2 μg of pMT123-HA-ubiquitin plasmids for 48 hours. For the luciferase assay SH-SY5Y cells were transiently transfected with pCMV-empty vector or pCMV-FLAG-PARIS with either wild type or Q311X parkin, or pGL3-Basic, pGL3-PGC-1α promoter-Luciferase, or pGL3-PGC-1α promoter deletion mutant (a gift from Akyoshi Fukamizu, University of Tsukuba, Japan) (Daitoku et al., 2003) for firefly Luciferase assay and 0.1 μg pRL-TK vector (Promega) for Renilla luciferase control.
The tissues including nine different organs, eight different brain regions from C57/BL6 mouse, human brain, and mouse brain were homogenized in lysis buffer [10 mM Tris-HCl, pH 7.4, 150 mM NaCl, 5 mM EDTA, 0.5% Nonidet P-40, 10 mM Na-β-glycerophosphate, […] I and II (Sigma), and Complete Protease Inhibitor Mixture (Roche)], using a Diax 900 homogenizer. After homogenization, samples were rotated at 4° C. for 30 min for complete lysis, then the homogenate was centrifuged at 52,000 rpm for 20 min, and the resulting fractions were collected. Protein levels were quantified using the BCA kit (Pierce) with BSA standards and analyzed by immunoblot. Immunoblotting was performed with an antibody of interest and was performed with chemiluminescence (Pierce). The densitometric analyses of the bands were performed using ImageJ (NIH, http://rsb.info.nih.gov/ij/). Data are expressed as mean±S.E.M. The results were evaluated for statistical significance by applying the unpaired two-tailed Student's t-test or Student-Newman-Keuls. Differences were considered significant when p<0.05.

Peptide text beside a SMILES is read from it. * marks the point of attachment. Cbz = O=C(OCc1ccccc1)*

As for `CC(C)C[C@@H](C=O)NC(=O)[C@H](CC(C)C)NC(=O)[C@H](CC(C)C)NC(=O)OCc1ccccc1` [MG132] (Cbz-Leu-Leu-Leu-aldehyde), the “PARIS steady state level” value is “increased approximately two to three fold”. Besides, the “PARIS steady state level” value (listed as MG-132) was “increases PARIS steady state levels”. Further, where the note is “MYC-parkin to FLAG-PARIS 4 to 1, 10 μM MG-132”, the “Parkin-mediated degradation of FLAG-PARIS” value is reported as “blocked”. Also, the “Parkin-mediated degradation of FLAG-PARIS” value (MYC-parkin to FLAG-PARIS 4 to 1, 10 μM MG-132, listed as MG-132) is “prevents the degradation of FLAG-PARIS”.

These data come from patent US9274128B2, “Transcriptional repression leading to parkinson's disease” (priority 2010, dated 2016).
